Results from patent US12516056B2, “Compounds for inhibition of janus kinase 1” (MANKIND PHARMA LTD., priority 2019, dated 2026).

Tests used:
[1] = molecular target: T1, Recombinant JAK1 (Homo sapiens, UniProt P23458); assay: JAK biochemical assay (LANCE Ultra TR-FRET), JAK1; settings: recombinant JAK1, TR-FRET; read-out: Biochemical Assay (μM) JAK1
T1 construct: purchased Carna Biosciences
Procedure: (§1) Recombinant JAK1, JAK2, JAK3 and TYK2 (Carna Biosciences) were used to develop biochemical assays in 50 mM HEPES pH 7.5, 1 mM EGTA, 10 mM MgCl2, 2 mM DTT and 0.01% Tween-20. […] The intensity of the light emission is proportional to the level of ULight substrate phosphorylation. Compounds which interfere with JAK enzyme activity show a lesser substrate phosphorylation and values are projected in terms of % inhibition in comparison to vehicle control.

[2] = molecular target: T2, Recombinant JAK2 (Homo sapiens, UniProt O60674); assay: JAK biochemical assay (LANCE Ultra TR-FRET), JAK2; settings: recombinant JAK2, TR-FRET; read-out: Biochemical Assay (μM) JAK2
T2 construct: purchased Carna Biosciences
T2 sequence (O60674 whole entry): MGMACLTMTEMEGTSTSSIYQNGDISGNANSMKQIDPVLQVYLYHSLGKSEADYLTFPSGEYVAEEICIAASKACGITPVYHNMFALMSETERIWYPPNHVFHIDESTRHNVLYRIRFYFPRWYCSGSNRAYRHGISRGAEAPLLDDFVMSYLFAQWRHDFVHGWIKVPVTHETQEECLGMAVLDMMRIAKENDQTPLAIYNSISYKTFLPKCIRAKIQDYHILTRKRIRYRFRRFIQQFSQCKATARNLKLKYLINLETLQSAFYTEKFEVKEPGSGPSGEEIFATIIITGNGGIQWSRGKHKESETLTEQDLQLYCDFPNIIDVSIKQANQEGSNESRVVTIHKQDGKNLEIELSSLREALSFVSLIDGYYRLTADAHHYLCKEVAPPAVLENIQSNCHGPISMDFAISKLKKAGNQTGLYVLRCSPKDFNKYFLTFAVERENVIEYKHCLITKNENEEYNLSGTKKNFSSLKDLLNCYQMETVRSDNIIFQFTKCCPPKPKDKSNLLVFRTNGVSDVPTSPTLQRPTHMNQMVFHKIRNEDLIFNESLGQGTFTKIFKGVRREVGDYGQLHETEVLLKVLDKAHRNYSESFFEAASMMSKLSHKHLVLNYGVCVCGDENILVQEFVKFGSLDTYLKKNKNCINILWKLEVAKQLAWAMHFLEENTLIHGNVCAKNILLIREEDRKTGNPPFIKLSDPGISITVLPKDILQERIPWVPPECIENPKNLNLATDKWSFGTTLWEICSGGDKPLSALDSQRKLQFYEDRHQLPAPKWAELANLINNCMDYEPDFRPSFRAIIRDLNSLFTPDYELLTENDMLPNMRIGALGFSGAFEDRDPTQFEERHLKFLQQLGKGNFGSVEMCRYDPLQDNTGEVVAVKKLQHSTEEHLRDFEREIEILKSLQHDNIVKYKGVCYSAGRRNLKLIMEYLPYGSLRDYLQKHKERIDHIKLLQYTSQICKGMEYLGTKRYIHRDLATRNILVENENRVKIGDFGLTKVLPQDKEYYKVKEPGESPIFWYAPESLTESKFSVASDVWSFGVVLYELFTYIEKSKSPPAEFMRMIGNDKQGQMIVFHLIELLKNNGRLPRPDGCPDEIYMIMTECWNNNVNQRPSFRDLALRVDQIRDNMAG
Procedure: as §1

[3] = molecular target: T3, Recombinant JAK3 (Homo sapiens, UniProt P52333); assay: JAK biochemical assay (LANCE Ultra TR-FRET), JAK3; settings: recombinant JAK3, TR-FRET; read-out: Biochemical Assay (μM) JAK3
T3 construct: purchased Carna Biosciences
T3 sequence (P52333 1-1124): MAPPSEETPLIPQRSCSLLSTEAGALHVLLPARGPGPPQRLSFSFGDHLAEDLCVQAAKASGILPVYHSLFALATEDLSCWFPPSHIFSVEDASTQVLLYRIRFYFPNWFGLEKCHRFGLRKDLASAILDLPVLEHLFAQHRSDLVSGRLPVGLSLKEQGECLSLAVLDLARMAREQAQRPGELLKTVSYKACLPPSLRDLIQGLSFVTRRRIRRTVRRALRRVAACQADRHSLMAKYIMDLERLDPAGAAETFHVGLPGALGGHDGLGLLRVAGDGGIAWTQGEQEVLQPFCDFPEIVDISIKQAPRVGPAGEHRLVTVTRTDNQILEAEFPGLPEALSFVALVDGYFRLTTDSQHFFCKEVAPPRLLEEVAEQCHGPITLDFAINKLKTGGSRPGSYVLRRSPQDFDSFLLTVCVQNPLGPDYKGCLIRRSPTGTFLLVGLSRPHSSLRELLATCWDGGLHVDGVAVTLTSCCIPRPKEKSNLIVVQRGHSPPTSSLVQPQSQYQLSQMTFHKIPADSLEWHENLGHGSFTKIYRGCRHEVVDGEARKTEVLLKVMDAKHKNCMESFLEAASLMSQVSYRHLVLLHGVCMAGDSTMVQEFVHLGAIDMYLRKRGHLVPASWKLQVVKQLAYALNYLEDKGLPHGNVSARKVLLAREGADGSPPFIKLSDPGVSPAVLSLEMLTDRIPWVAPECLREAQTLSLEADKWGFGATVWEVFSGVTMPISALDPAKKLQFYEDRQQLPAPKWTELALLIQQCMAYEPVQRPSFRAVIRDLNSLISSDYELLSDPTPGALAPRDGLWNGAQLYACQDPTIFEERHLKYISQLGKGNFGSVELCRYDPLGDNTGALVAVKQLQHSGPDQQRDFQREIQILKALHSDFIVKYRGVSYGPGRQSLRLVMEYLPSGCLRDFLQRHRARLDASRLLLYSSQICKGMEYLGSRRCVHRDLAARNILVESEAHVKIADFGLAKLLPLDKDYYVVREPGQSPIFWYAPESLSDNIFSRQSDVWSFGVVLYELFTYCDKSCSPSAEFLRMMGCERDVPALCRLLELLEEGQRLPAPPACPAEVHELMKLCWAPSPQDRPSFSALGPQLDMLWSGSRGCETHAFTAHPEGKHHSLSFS
Procedure: as §1

[4] = molecular target: T4, Recombinant TYK2 (Homo sapiens, UniProt P29597); assay: JAK biochemical assay (LANCE Ultra TR-FRET), TYK2; settings: recombinant TYK2, TR-FRET; read-out: Biochemical Assay (μM) TYK2
T4 construct: purchased Carna Biosciences
T4 sequence (P29597 whole entry): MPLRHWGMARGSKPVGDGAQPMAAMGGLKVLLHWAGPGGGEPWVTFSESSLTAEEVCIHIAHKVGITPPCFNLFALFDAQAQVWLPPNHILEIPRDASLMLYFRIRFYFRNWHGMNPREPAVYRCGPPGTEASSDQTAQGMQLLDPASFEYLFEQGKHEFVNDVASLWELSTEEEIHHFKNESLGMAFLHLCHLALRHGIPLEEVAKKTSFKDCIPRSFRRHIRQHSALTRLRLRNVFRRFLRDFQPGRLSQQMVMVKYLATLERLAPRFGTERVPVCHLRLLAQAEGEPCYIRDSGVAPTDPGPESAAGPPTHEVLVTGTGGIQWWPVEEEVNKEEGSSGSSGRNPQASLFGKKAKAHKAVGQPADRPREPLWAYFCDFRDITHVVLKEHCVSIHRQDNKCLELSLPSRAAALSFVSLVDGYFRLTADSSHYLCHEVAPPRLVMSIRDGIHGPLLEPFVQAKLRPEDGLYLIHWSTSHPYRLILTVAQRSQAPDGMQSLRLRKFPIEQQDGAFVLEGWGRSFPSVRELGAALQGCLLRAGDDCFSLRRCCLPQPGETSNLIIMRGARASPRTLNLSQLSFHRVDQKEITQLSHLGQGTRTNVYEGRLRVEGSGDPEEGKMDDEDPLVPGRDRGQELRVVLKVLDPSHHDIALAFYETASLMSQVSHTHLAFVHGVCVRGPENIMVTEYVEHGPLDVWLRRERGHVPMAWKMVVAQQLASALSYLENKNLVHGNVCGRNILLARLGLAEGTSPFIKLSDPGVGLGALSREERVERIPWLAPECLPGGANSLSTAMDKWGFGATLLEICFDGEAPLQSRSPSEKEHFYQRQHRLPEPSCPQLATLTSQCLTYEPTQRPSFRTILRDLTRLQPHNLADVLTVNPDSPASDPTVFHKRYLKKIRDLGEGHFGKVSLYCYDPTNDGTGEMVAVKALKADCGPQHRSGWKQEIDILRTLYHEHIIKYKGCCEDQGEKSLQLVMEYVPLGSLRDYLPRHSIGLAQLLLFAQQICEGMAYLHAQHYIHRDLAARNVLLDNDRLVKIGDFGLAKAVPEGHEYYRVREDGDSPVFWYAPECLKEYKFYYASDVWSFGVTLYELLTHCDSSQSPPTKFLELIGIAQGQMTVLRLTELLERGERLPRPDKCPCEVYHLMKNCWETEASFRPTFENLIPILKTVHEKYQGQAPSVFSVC
Procedure: as §1

T1 sequence (P23458 whole entry): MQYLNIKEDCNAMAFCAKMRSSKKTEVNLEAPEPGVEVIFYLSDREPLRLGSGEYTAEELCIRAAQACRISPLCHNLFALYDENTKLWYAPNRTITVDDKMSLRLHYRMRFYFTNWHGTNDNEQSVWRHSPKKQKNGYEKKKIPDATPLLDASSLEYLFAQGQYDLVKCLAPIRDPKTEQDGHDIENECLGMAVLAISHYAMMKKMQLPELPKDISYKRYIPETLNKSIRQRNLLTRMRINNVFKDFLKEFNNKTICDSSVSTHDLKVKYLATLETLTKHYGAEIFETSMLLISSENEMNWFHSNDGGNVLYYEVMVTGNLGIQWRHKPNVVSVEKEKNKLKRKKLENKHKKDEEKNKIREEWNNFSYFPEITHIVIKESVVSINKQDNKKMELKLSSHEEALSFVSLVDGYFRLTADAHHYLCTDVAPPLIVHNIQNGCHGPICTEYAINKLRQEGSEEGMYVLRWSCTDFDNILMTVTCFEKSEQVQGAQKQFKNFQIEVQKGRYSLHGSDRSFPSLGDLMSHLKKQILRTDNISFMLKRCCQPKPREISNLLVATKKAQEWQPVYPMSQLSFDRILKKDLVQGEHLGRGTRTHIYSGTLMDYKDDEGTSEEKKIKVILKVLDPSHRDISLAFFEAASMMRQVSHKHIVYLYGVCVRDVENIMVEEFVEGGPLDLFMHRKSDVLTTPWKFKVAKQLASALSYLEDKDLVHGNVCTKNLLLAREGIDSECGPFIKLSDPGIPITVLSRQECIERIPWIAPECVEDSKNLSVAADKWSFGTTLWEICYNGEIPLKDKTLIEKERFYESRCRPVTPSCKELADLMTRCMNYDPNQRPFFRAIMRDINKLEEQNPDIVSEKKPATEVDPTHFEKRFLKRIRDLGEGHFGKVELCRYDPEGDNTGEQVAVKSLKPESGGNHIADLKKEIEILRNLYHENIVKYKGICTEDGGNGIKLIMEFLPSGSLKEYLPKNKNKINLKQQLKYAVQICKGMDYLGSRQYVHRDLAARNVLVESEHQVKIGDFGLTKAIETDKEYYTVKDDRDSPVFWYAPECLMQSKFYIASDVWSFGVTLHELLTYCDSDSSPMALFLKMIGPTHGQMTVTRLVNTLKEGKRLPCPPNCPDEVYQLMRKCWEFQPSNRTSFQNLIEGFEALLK

IC50 [1] [µM]	IC50 [2] [µM]	IC50 [3] [µM]	IC50 [4] [µM]	Structure (SMILES)
> 10	> 10	> 10	> 10	CS(=O)(=O)CCNC(=O)N1CCN(c2ccnc3[nH]c(=O)[nH]c23)CC1 [Example 1013, 4-(2,3-dihydro-2-oxo-1H-imidazo[4,5-b]pyridin-7-yl)-N-(2-(methylsulfonyl)ethyl)piperazine-1-carboxamide]
> 0.5	> 0.5	> 0.5	> 1	CS(=O)(=O)N1CC(C(C#N)c2ccc(-n3cc(-c4ccnc5[nH]cnc45)cn3)nc2)C1 (stereo not drawn) [Example 1115, 2-(6-(4-(3H-imidazo[4,5-b]pyridin-7-yl)-1H-pyrazol-1-yl)pyridin-3-yl)-2-(1-(methylsulfonyl)azetidin-3-yl)acetonitrile]
> 1	> 0.5	> 0.5	> 10	COc1cc(-n2cc(-c3ccnc4[nH]cnc34)cn2)ccc1CC#N [Example 1105, 2-(4-(4-(3H-imidazo[4,5-b]pyridin-7-yl)-1H-pyrazol-1-yl)-2-methoxyphenyl)acetonitrile]
> 10	> 10	> 10	> 10	CS(=O)(=O)N1CCC(NC(=O)N2CCN(c3ccnc4[nH]c(=O)[nH]c34)CC2)CC1 [Example 1016, N-(1-(methylsulfonyl)piperidin-4-yl)-4-(2-oxo-2,3-dihydro-1H-imidazo[4,5-b]pyridin-7-yl)piperazine-1-carboxamide]
> 10	> 1	> 1	> 10	O=C(NCC(F)(F)F)n1cc(-c2ccnc3[nH]c(C4CC4)nc23)cn1 [Example 1096, 4-(2-cyclopropyl-3H-imidazo[4,5-b]pyridin-7-yl)-N-(2,2,2-trifluoroethyl)-1H-pyrazole-1-carboxamide]
> 1	> 1	> 1	> 10	CC(=O)N1CCC(c2nc3c(-c4cnn(C(=O)NCC(F)(F)F)c4)ccnc3[nH]2)CC1 [Example 1098, 4-(2-(1-acetylpiperidin-4-yl)-3H-imidazo[4,5-b]pyridin-7-yl)-N-(2,2,2-trifluoroethyl)-1H-pyrazole-1-carboxamide]
> 10	> 1	> 1	> 10	N#Cc1ccc(-n2cc(-c3ccnc4[nH]cnc34)cn2)nc1 [Example 1079, 6-(4-(3H-imidazo[4,5-b]pyridin-7-yl)-1H-pyrazol-1-yl)pyridine-3-carbonitrile]
> 1	> 1	> 10	> 10	O=C(NCC1CCCC1)N1CCN(c2ccnc3[nH]c(=O)[nH]c23)CC1 [Example 1017, N-(cyclopentylmethyl)-4-(2,3-dihydro-2-oxo-1H-imidazo[4,5-b]pyridin-7-yl)piperazine-1-carboxamide]
> 1	> 1	> 1	> 10	O=C(Nc1ccc(-c2ccnc3[nH]c(=O)[nH]c23)cc1)N1CCOCC1 [Example 1008, N-(4-(2,3-dihydro-2-oxo-1H-imidazo[4,5-b]pyridin-7-yl)phenyl)morpholine-4-carboxamide]
> 10	> 10	> 10	> 10	O=C(NCC(F)(F)F)Nc1ncc(-c2ccnc3[nH]c(=O)[nH]c23)cn1 [Example 1004, 1-(2,2,2-trifluoroethyl)-3-(5-(2,3-dihydro-2-oxo-1H-imidazo[4,5-b]pyridin-7-yl)pyrimidin-2-yl)urea]
> 0.5	> 0.5	> 0.5	> 1	N#CCC1CCN(C(=O)n2cc(-c3ccnc4[nH]c(=O)[nH]c34)cn2)C1 (stereo not drawn) [Example 1057, 2-(1-(4-(2-oxo-2,3-dihydro-1H-imidazo[4,5-b]pyridin-7-yl)-1H-pyrazole-1-carbonyl)pyrrolidin-3-yl)acetonitrile]
> 0.5	< 0.5	> 0.5	> 0.5	N#CCC(NC(=O)n1cc(-c2ccnc3[nH]cnc23)cn1)C1CCOCC1 (stereo not drawn) [Example 1065, N-(2-cyano-1-(tetrahydro-2H-pyran-4-yl)ethyl)-4-(3H-imidazo[4,5-b]pyridin-7-yl)-1H-pyrazole-1-carboxamide]
> 1	> 1	> 1	> 1	O=C(NCC(F)(F)F)n1ccc(-c2ccnc3[nH]c(=O)[nH]c23)c1 [Example 1028, N-(2,2,2-trifluoroethyl)-3-(2,3-dihydro-2-oxo-1H-imidazo[4,5-b]pyridin-7-yl)-1H-pyrrole-1-carboxamide]
< 1	< 1	< 1	> 10	CCOc1nc2c(-c3cnn(C(=O)NCC(F)(F)F)c3)ccnc2[nH]1 [Example 1095, 4-(2-ethoxy-3H-imidazo[4,5-b]pyridin-7-yl)-N-(2,2,2-trifluoroethyl)-1H-pyrazole-1-carboxamide]
> 10	> 10	> 10	> 10	Cn1c(=O)[nH]c2nccc(-c3cnn(C(=O)NCC(F)(F)F)c3)c21 [Example 1029, N-(2,2,2-trifluoroethyl)-4-(2,3-dihydro-1-methyl-2-oxo-1H-imidazo[4,5-b]pyridin-7-yl)-1H-pyrazole-1-carboxamide]
> 0.1	> 0.5	> 0.1	> 1	N#CC(c1ccc(-n2cc(-c3ccnc4[nH]cnc34)cn2)nc1)C1CC1 (stereo not drawn) [Example 1110, 2-(6-(4-(3H-imidazo[4,5-b]pyridin-7-yl)-1H-pyrazol-1-yl)pyridin-3-yl)-2-cyclopropylacetonitrile]
> 1	> 1	> 10	> 10	N#CC1CN(C(=O)CNC(=O)n2cc(-c3ccnc4[nH]c(=O)[nH]c34)cn2)C1 [Example 1059, N-(2-(3-cyanoazetidin-1-yl)-2-oxoethyl)-4-(2-oxo-2,3-dihydro-1H-imidazo[4,5-b]pyridin-7-yl)-1H-pyrazole-1-carboxamide]
> 0.1	> 0.5	> 0.1	> 1	CC(C)(O)CC(c1ccc(-n2cc(-c3ccnc4[nH]cnc34)cn2)nc1)C(F)(F)F (stereo not drawn) [Example 1193, 4-(6-(4-(3H-imidazo[4,5-b]pyridin-7-yl)-1H-pyrazol-1-yl)pyridin-3-yl)-5,5,5-trifluoro-2-methylpentan-2-ol]
> 0.5	> 1	> 1	> 1	CS(=O)(=O)CCC(c1ccc(-n2cc(-c3ccnc4[nH]c(=O)[nH]c34)cn2)nc1)C(F)(F)F (stereo not drawn) [Example 1147, 7-(1-(5-(1,1,1-trifluoro-4-(methylsulfonyl)butan-2-yl)pyridin-2-yl)-1H-pyrazol-4-yl)-1H-imidazo[4,5-b]pyridin-2(3H)-one]
> 1	> 1	> 1	> 1	O=C(CCC(F)(F)F)n1cc(-c2ccnc3[nH]c(=O)[nH]c23)cn1 [Example 1031, 7-(1-(4,4,4-trifluorobutanoyl)-1H-pyrazol-4-yl)-1H-imidazo[4,5-b]pyridin-2(3H)-one]
> 0.5	> 1	> 1	> 1	CS(=O)(=O)CCC(c1ccc(-n2cc(-c3ccnc4[nH]c(=O)[nH]c34)cn2)nc1)C(F)(F)F (stereo not drawn) [Example 1189, 7-(1-(5-(1,1,1-trifluoro-4-(methylsulfonyl)butan-2-yl)pyridin-2-yl)-1H-pyrazol-4-yl)-1H-imidazo[4,5-b]pyridin-2(3H)-one]
